Tests used:
rabbit endometrium = test: Endometrial transformation in rabbit (Clauberg test, McPhail index); format: in vivo
Procedure: The test is performed in juvenile female rabbits (New Zealand white, 30 to 35 days old; obtained from Schriever, Germany). From days 1 to 4, all rabbits are primed with […] (s.c., 0.5 ml/kg/day) in order to induce proliferation of the endometrium. From days 7 to 10, the test compound is applied orally (p.o., 0.5 ml/kg/day) at doses of 0.001, 0.01 and 0.1 mg/kg/day. A group which receives only vehicle after estradiol priming serves as a negative control. A second group which receives only progesterone in order to induce endometrial differentiation after estradiol priming is used as a positive control. In order to study the progestagenic activity of ((+)-1), which is the most preferred compound according to the present invention, one treatment group-receives only the compound ((+)-1) after estradiol priming.
Autopsy is performed on […]. As a parameter for progestagenic activity, the McPhail index (i.e., the degree of differentiation) is determined by means of light microscopy (scores: 1 to 4; 1=no glandular differentiation, 4=maximal differentiation).

PR-A = format: cell-based
Procedure: The method for screening for PR isoform-specific progestins according to the present invention is carried out with first and second SK-N-MC cells stably transfected with a plasmid expressing the HPR-A (first cells) or the hPR-B (second cells) and the LUC reporter gene linked to the hormonally responsive MTV promoter.
The cells are cultured in Minimum Essential Medium with Earl's Salts (S-MEM, without L-glutamine; Gibco BRL, no. 21090-022), supplemented with 10% fetal calf serum (FCS), penicillin 100U/streptomycin 100 μg/ml (Biochrom, no. A2213), L-glutamine 4 mmol/l (Gibco BRL, no. 25030-024), sodium pyruvate 1 mmol/l (Biochrom, no. L0473) and 1×non-essential amino acids (Biochrom, no. K0293) at a temperature of 37° C. and in an atmosphere of 5% carbon dioxide.
For the transcription assay, the cells are seeded onto 96-well dishes (2×10^4 cells/dish) and cultured in a medium as described above, with the exception that the FCS is replaced by a 3% charcoal stripped FCS. 48 hours later, cells are contacted with prediluted test compounds. For determination of agonistic activity, cells are cultured in the presence of 6 increasing concentrations (10^−6 to 10^−11 mol/l) of test progestins. As a positive control for reporter gene induction cells are treated with 10^−6 to 10^−11 mol/l R5020 (promegestone). As a negative control for reporter gene induction, cells are cultured in 1% ethanol.
After incubation with test progestins for 24 hours, the medium is removed and cells are lysed with 20 μl of lysis buffer (Luciferase Assay System E 153A; Promega) and under agitation of the plate for 101 min. After addition of 30 μl of luciferase reagent (Luciferase Assay System E 151A+152A; Promega) within 30 seconds per plate, the activity of the luciferase reporter gene product is determined in the cell lysates by means of a Microlite ML 3000 microtiter plate luminometer (Dynatech) in cycle mode.
Evaluation of the response gives the efficacy [%], and evaluation of the EC50s values gives the potency [nM]. Calculation of the agonistic activity is conducted as follows:
The LUC activity [%] for the measured data points is calculated as follows:
[formula] wherein CI=100% stimulation (R5020, 10^−7 mol/l) and CO=0% stimulation (ethanol, 1%).
Thus, the efficacy [%] is calculated according to: […]
The potency [nM], i.e. the EC50, is determined graphically.

[1] = biological target: T1, estrogen receptor-α (ERα) (Homo sapiens, UniProt P03372); test: Binding to the estrogen receptor-α in vitro
T1 sequence (P03372 1-595): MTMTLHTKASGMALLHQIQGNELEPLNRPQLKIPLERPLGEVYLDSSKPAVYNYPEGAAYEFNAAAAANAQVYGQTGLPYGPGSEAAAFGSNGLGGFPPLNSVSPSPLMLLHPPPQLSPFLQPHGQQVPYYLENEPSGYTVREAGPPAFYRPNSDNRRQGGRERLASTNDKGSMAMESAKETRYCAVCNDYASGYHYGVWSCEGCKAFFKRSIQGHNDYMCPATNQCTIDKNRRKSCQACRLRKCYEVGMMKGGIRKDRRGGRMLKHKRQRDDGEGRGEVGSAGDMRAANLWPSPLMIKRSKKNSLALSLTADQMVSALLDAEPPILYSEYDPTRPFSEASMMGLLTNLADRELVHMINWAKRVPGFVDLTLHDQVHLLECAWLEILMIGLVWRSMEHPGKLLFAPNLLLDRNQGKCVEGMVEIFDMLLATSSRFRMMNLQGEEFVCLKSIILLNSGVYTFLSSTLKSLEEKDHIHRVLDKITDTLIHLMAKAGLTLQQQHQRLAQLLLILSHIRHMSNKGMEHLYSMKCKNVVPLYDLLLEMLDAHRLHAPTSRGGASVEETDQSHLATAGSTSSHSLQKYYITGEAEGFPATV

thymus weight = test: Glucocorticoid/anti-glucocorticoid activity in vivo (changes in thymus weight)

O=C1OCc2cc(NC(=O)C(O)(CC3(c4cc(C(F)(F)F)ccc4F)CC3)C(F)(F)F)ccc21 (single isomer, unassigned; (+)) [((+)-1), (+)-5-{2-hydroxy-3-[1-(2-fluoro-5-trifluoromethylphenyl)-cyclopropyl]-2-trifluoromethyl-propionylamino}-phthalide]
Potency upon subcutaneous versus oral application, in words (rabbit endometrium; Clauberg test, rabbit): identical potency
Threshold Value (endometrial transformation) (rabbit endometrium; oral (p.o.)): 0.001 to 0.01 mg/kg
Δ agonism efficacies (A-B) (PR-A; PR-A efficacy minus PR-B efficacy): 64
PR isoform selectivity in words (PR-A; PR-A versus PR-B): selective PR-A agonist
Affinity for the estrogen receptor-α (ERα) [1]: negligible affinity
Glucocorticoid and anti-glucocorticoid activity in vivo (thymus weight): does not seem to exhibit any glucocorticoid or any anti-glucocorticoid activity in vivo

— US7388006B2, “Non-steroidal progesting” (Bayer Schering Pharma AG, priority 2002, dated 2008)
